Organism: Rattus norvegicus
Test: Open TG-GATES - Regimen: Daily Repeat
Format: toxicity, organism-based, Sprague-Dawley
Parameters: regimen Daily Repeat, gender Male, age 6 weeks
Conditions: in vivo, po, 60 mg/kg, route gavage, dose level Low; for APTT / Bas / Eos / Fbg / Hb / Ht / Lym / MCH / MCHC / MCV / Mono / Neu / PT / Plat / RBC / Ret / WBC: tissue Blood; for KIDNEY_L / KIDNEY_R / KIDNEY_TOTAL: tissue Kidney; for LIVER: tissue Liver; for A/G / ALP / ALT / AST / BUN / CRE / Ca / Cl / DBIL / GLC / IP / K / LDH / Na / PL / RALB / TBIL / TC / TG / TP / gamma-GTP: tissue Plasma

CCOC(=O)[C@H](CCc1ccccc1)N[C@@H](C)C(=O)N1CCC[C@H]1C(=O)O showed a TERMINAL_BW (72 h, time 3 day) of 243.2 g, an APTT (72 h, time 3 day) of 16.2 s and a Bas (72 h, time 3 day) of 0%. For the same molecule, the Eos (72 h, time 3 day) was 0.8%, the Fbg (72 h, time 3 day) was 233.6 mg/dL and the Hb (72 h, time 3 day) was 13.1 g/dL. It also gave a Ht (72 h, time 3 day) of 39.8%, a Lym (72 h, time 3 day) of 82.6% and an MCH (72 h, time 3 day) of 21.3 pg. For the same molecule, the MCHC (72 h, time 3 day) was 32.9%, the MCV (72 h, time 3 day) was 64.8 fL and the Mono (72 h, time 3 day) was 5.2%. It also gave a Neu (72 h, time 3 day) of 11.4%, a PT (72 h, time 3 day) of 11.6 s and a Plat (72 h, time 3 day) of 124.4 x10_4/uL. It also gave an RBC (72 h, time 3 day) of 614.6 x10_4/ul, a Ret (72 h, time 3 day) of 5.5% and a WBC (72 h, time 3 day) of 105.6 x10_2/uL. It also gave a KIDNEY_L (72 h, time 3 day) of 1.1 g, a KIDNEY_R (72 h, time 3 day) of 1.1 g and a KIDNEY_TOTAL (72 h, time 3 day) of 2.2 g. For the same molecule, the LIVER (72 h, time 3 day) was 11.8 g, the A/G (72 h, time 3 day) was 2 and the ALP (72 h, time 3 day) was 985.6 IU/L. It also gave an ALT (72 h, time 3 day) of 32.8 IU/L, an AST (72 h, time 3 day) of 63.2 IU/L and a BUN (72 h, time 3 day) of 20.2 mg/dL. It also gave a CRE (72 h, time 3 day) of 0.5 mg/dL, a Ca (72 h, time 3 day) of 10.9 mg/dL and a Cl (72 h, time 3 day) of 105.8 meq/L. The DBIL (72 h, time 3 day) was 0.028 mg/dL, the GLC (72 h, time 3 day) was 189.2 mg/dL and the IP (72 h, time 3 day) was 8 mg/dL. For the same molecule, the K (72 h, time 3 day) was 5 meq/L, the LDH (72 h, time 3 day) was 90.6 IU/L and the Na (72 h, time 3 day) was 140.2 meq/L. It also gave a PL (72 h, time 3 day) of 160 mg/dL, an RALB (72 h, time 3 day) of 4 g/dL and a TBIL (72 h, time 3 day) of 0.3 mg/dL. For the same molecule, the TC (72 h, time 3 day) was 81 mg/dL, the TG (72 h, time 3 day) was 93 mg/dL and the TP (72 h, time 3 day) was 6.1 g/dL. The gamma-GTP (72 h, time 3 day) was 2 IU/L, the TERMINAL_BW ([…], time 7 day) was 259.7 g and the TERMINAL_BW ([…], time 14 day) was 311.1 g. The TERMINAL_BW ([…], time 28 day) was 389.4 g, the APTT ([…], time 7 day) was 15.6 s and the Bas ([…], time 7 day) was 0%. The Eos ([…], time 7 day) was 0.6%, the Fbg ([…], time 7 day) was 232 mg/dL and the Hb ([…], time 7 day) was 13.5 g/dL. It also gave a Ht ([…], time 7 day) of 40.7%, a Lym ([…], time 7 day) of 84.6% and an MCH ([…], time 7 day) of 20.6 pg. The MCHC ([…], time 7 day) was 33.2%, the MCV ([…], time 7 day) was 61.9 fL and the Mono ([…], time 7 day) was 5%. For the same molecule, the Neu ([…], time 7 day) was 9.2%, the PT ([…], time 7 day) was 11.6 s and the Plat ([…], time 7 day) was 124.1 x10_4/uL. For the same molecule, the RBC ([…], time 7 day) was 658.4 x10_4/ul, the Ret ([…], time 7 day) was 4.8% and the WBC ([…], time 7 day) was 134.2 x10_2/uL. It also gave an APTT ([…], time 14 day) of 16.1 s, a Bas ([…], time 14 day) of 0% and an Eos ([…], time 14 day) of 1.2%. It also gave a Fbg ([…], time 14 day) of 247.4 mg/dL, a Hb ([…], time 14 day) of 14.3 g/dL and a Ht ([…], time 14 day) of 43%. The Lym ([…], time 14 day) was 76%, the MCH ([…], time 14 day) was 20.1 pg and the MCHC ([…], time 14 day) was 33.2%. For the same molecule, the MCV ([…], time 14 day) was 60.7 fL, the Mono ([…], time 14 day) was 6.6% and the Neu ([…], time 14 day) was 16.2%. For the same molecule, the PT ([…], time 14 day) was 11.3 s, the Plat ([…], time 14 day) was 118.7 x10_4/uL and the RBC ([…], time 14 day) was 710.6 x10_4/ul. It also gave a Ret ([…], time 14 day) of 3.5%, a WBC ([…], time 14 day) of 107.1 x10_2/uL and an APTT ([…], time 28 day) of 16.8 s. The Bas ([…], time 28 day) was 0%, the Eos ([…], time 28 day) was 1% and the Fbg ([…], time 28 day) was 252.6 mg/dL. It also gave a Hb ([…], time 28 day) of 15.1 g/dL, a Ht ([…], time 28 day) of 45.4% and a Lym ([…], time 28 day) of 85.6%. The MCH ([…], time 28 day) was 19.3 pg, the MCHC ([…], time 28 day) was 33.3% and the MCV ([…], time 28 day) was 58 fL. The Mono ([…], time 28 day) was 4.4%, the Neu ([…], time 28 day) was 8.8% and the PT ([…], time 28 day) was 11.6 s. For the same molecule, the Plat ([…], time 28 day) was 108.6 x10_4/uL, the RBC ([…], time 28 day) was 782.8 x10_4/ul and the Ret ([…], time 28 day) was 3.5%. It also gave a WBC ([…], time 28 day) of 132.2 x10_2/uL, a KIDNEY_L ([…], time 7 day) of 1.1 g and a KIDNEY_R ([…], time 7 day) of 1.1 g. It also gave a KIDNEY_TOTAL ([…], time 7 day) of 2.3 g, a KIDNEY_L ([…], time 14 day) of 1.3 g and a KIDNEY_R ([…], time 14 day) of 1.3 g. It also gave a KIDNEY_TOTAL ([…], time 14 day) of 2.5 g, a KIDNEY_L ([…], time 28 day) of 1.5 g and a KIDNEY_R ([…], time 28 day) of 1.5 g. For the same molecule, the KIDNEY_TOTAL ([…], time 28 day) was 3 g, the LIVER ([…], time 7 day) was 12.2 g and the LIVER ([…], time 14 day) was 13.6 g. For the same molecule, the LIVER ([…], time 28 day) was 16.3 g, the A/G ([…], time 7 day) was 2.1 and the ALP ([…], time 7 day) was 880.6 IU/L. It also gave an ALT ([…], time 7 day) of 32.6 IU/L, an AST ([…], time 7 day) of 61.8 IU/L and a BUN ([…], time 7 day) of 21.2 mg/dL. It also gave a CRE ([…], time 7 day) of 0.6 mg/dL, a Ca ([…], time 7 day) of 10.9 mg/dL and a Cl ([…], time 7 day) of 104 meq/L. For the same molecule, the DBIL ([…], time 7 day) was 0.002 mg/dL, the GLC ([…], time 7 day) was 209.2 mg/dL and the IP ([…], time 7 day) was 8.6 mg/dL. It also gave a K ([…], time 7 day) of 5 meq/L, an LDH ([…], time 7 day) of 116.2 IU/L and a Na ([…], time 7 day) of 138 meq/L. The PL ([…], time 7 day) was 168.4 mg/dL, the RALB ([…], time 7 day) was 4 g/dL and the TBIL ([…], time 7 day) was 0.3 mg/dL. The TC ([…], time 7 day) was 88.8 mg/dL, the TG ([…], time 7 day) was 121.2 mg/dL and the TP ([…], time 7 day) was 5.9 g/dL. For the same molecule, the gamma-GTP ([…], time 7 day) was 1 IU/L, the A/G ([…], time 14 day) was 1.8 and the ALP ([…], time 14 day) was 821.6 IU/L. For the same molecule, the ALT ([…], time 14 day) was 34.4 IU/L, the AST ([…], time 14 day) was 65.2 IU/L and the BUN ([…], time 14 day) was 24.4 mg/dL. The CRE ([…], time 14 day) was 0.6 mg/dL, the Ca ([…], time 14 day) was 10.8 mg/dL and the Cl ([…], time 14 day) was 106 meq/L. It also gave a DBIL ([…], time 14 day) of 0 mg/dL, a GLC ([…], time 14 day) of 199.2 mg/dL and an IP ([…], time 14 day) of 8.4 mg/dL. For the same molecule, the K ([…], time 14 day) was 5 meq/L, the LDH ([…], time 14 day) was 105.2 IU/L and the Na ([…], time 14 day) was 138.4 meq/L. For the same molecule, the PL ([…], time 14 day) was 155.4 mg/dL, the RALB ([…], time 14 day) was 4 g/dL and the TBIL ([…], time 14 day) was 0.3 mg/dL. For the same molecule, the TC ([…], time 14 day) was 73.2 mg/dL, the TG ([…], time 14 day) was 113.2 mg/dL and the TP ([…], time 14 day) was 6.3 g/dL. For the same molecule, the gamma-GTP ([…], time 14 day) was 1.4 IU/L, the A/G ([…], time 28 day) was 1.8 and the ALP ([…], time 28 day) was 658.6 IU/L. For the same molecule, the ALT ([…], time 28 day) was 31.6 IU/L, the AST ([…], time 28 day) was 61.4 IU/L and the BUN ([…], time 28 day) was 20.8 mg/dL. The CRE ([…], time 28 day) was 0.6 mg/dL, the Ca ([…], time 28 day) was 10.8 mg/dL and the Cl ([…], time 28 day) was 105.8 meq/L. For the same molecule, the DBIL ([…], time 28 day) was 0.046 mg/dL, the GLC ([…], time 28 day) was 198.6 mg/dL and the IP ([…], time 28 day) was 7.3 mg/dL. It also gave a K ([…], time 28 day) of 4.8 meq/L, an LDH ([…], time 28 day) of 66.4 IU/L and a Na ([…], time 28 day) of 137.6 meq/L. For the same molecule, the PL ([…], time 28 day) was 144.4 mg/dL, the RALB ([…], time 28 day) was 4.1 g/dL and the TBIL ([…], time 28 day) was 0.3 mg/dL. The TC ([…], time 28 day) was 69.2 mg/dL, the TG ([…], time 28 day) was 90.2 mg/dL and the TP ([…], time 28 day) was 6.4 g/dL. The gamma-GTP ([…], time 28 day) was 1.2 IU/L.
